This note sets out measurements from patent publication US20160296529A1, “AMINOTRIAZOLOPYRIDINE FOR USE IN THE TREATMENT OF INFLAMMATION, AND PHARMACEUTICAL COMPOSITIONS THEREOF” (priority 2012, published 2016).

Assay [1] addresses T1, Recombinant human JAK2 catalytic domain (Homo sapiens, UniProt O60674).
T1 construct: amino acids 808-1132; catalog number PV4210; GST; purchased Invitrogen PV4210
Description: JAK2 assay polyGT substrate. Type of assay: biochemical. The procedure:
Recombinant human JAK2 catalytic domain (amino acids 808-1132; catalog number PV4210) was purchased from Invitrogen. 0.05 mU of JAK2 was incubated with 2.5 μg polyGT substrate (Sigma catalog number P0275) in kinase reaction buffer (10 mM MOPS pH 7.5, 0.5 mM EDTA, 0.01% Brij-35, 1 mM DTT, 15 mM MgAc, 1 μM non-radioactive ATP, 0.25 μCi ^33P-gamma-ATP (Perkin Elmer, catalog number NEG602K001MC) final concentrations) with or without 5 μL containing test compound or vehicle (DMSO, 1% final concentration), in a total volume of 25 μL, in a polypropylene 96-well plate (Greiner, V-bottom). After 90 min at 30° C., reactions were stopped by adding of 25 μL/well of 150 mM phosphoric acid. […] 40 μL/well of Microscint-20 was added, the top of the plates was sealed and readout was performed using the Topcount (Perkin Elmer). Kinase activity was calculated by subtracting counts per min (cpm) obtained in the presence of a positive control inhibitor (10 μM staurosporine) from cpm obtained in the presence of vehicle. The ability of a test compound to inhibit this activity was determined as:
Percentage inhibition=((cpm determined for sample with test compound present−cpm determined for sample with positive control inhibitor) divided by (cpm determined in the presence of vehicle−cpm determined for sample with positive control inhibitor))*100. […]

The target in assay [2] is T2, Recombinant human TYK2 catalytic domain (Homo sapiens, UniProt P29597).
T2 construct: amino acids 871-1187; catalog number 08-147; GST; purchased Carna Biosciences 08-147
T2 sequence (P29597 871-1187): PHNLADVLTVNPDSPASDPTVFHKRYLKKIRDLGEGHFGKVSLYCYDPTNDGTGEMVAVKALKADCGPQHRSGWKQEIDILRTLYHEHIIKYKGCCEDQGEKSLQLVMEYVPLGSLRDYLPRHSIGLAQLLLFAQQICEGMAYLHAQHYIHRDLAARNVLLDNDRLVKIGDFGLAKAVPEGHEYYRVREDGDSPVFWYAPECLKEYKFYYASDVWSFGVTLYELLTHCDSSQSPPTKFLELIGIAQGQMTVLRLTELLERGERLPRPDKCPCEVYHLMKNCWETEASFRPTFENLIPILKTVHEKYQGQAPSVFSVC
Description: TYK2 inhibition assay. The format is biochemical. Here is the method:
Recombinant human TYK2 catalytic domain (amino acids 871-1187; catalog number 08-147) was purchased from Carna biosciences. 4 ng of TYK2 was incubated with 12.5 μg polyGT substrate (Sigma catalog number P0275) in kinase reaction buffer (25 mM Hepes pH 7.2, 50 mM NaCl, 0.5 mM EDTA, 1 mM DTT, 5 mM MnCl2, 10 mM MgCl2, 0.1% Brij-35, 0.1 μM non-radioactive ATP, 0.125 μCi ^33P-gamma-ATP (Perkin Elmer, catalog number NEG602K001MC) final concentrations) with or without 5 μL containing test compound or vehicle (DMSO, 1% final concentration), in a total volume of 25 μL, in a polypropylene 96-well plate (Greiner, V-bottom). After 90 min at 30° C., reactions were stopped by adding 25 μL/well of 150 mM phosphoric acid. […] 40 μL/well of Microscint-20 was added, the top of the plates was sealed and readout was performed using the Topcount (Perkin Elmer). Kinase activity was calculated by subtracting counts per min (cpm) obtained in the presence of a positive control inhibitor (10 μM staurosporine) from cpm obtained in the presence of vehicle. The ability of a test compound to inhibit this activity was determined as:
Percentage inhibition−((cpm determined for sample with test compound present−cpm determined for sample with positive control inhibitor) divided by (cpm determined in the presence of vehicle−cpm determined for sample with positive control inhibitor))*100. […]

[3] abbreviates: average, read-out: IC50 (average).
Setting [4] is: individual determinations, read-out: IC50.

Values joined by “and” are separate entries in the source; they are usually repeats but may differ in a detail not shown here. Equal entries are not always repeated. Where two headings read alike, the source gives them in different places.

T1 sequence (O60674 808-1132): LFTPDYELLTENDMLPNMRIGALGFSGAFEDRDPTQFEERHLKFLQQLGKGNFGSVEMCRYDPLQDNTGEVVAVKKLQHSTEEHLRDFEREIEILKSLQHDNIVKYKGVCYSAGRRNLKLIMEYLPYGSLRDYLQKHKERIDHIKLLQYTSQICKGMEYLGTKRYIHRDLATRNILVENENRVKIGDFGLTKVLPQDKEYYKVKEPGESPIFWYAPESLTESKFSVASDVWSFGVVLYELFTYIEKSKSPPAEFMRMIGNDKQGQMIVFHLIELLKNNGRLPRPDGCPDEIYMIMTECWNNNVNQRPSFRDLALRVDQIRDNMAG

For `Nc1nc2cccc(-c3ccc(CN4CCS(=O)(=O)CC4)cc3)n2n1` [Formula I, 5-[4-(1,1-Dioxothiomorpholin-4-ylmethyl)-phenyl]-[1,2,4]triazolo[1,5-a]pyridin-2-ylamine], the IC50 in assay [1] (setting [3]) is 624 nM; in assay [1] (setting [4]), 567 nM and 365 nM and 256 nM and 915 nM and 1020 nM; in assay [2] (setting [3]), more than 3000 nM; in assay [2] (setting [4]) it was > 3.33 µM (3×) and 1.97 µM and 2.12 µM and 3.85 µM and 3.82 µM and 2.21 µM.
